In patent publication US12624022B2, “Heterocyclic immunomodulators as PDL1 checkpoint inhibitor” (Janssen Sciences Ireland Unlimited Company, priority 2019, dated 2026):

How the values were obtained:
[1] = target: PD-1/PD-L1 (Homo sapiens, UniProt Q9NZQ7); assay: PD-1/PD-L1 biochemical protein-protein interaction assay (ALPHA); type: binding; details: Table 1a; 5 nM His tagged PD-L1, 5 nM biotinylated PD-1, 2 hours at 25° C.; read-out: ALPHA-LISA IC50
Experimental: Compounds were tested in protein-protein interaction assay to determine if they can specifically block the interaction between the extracellular domains of PD-1/PD-L1. Binding of the protein pairs is measured using a bead based amplified luminescent proximity homogeneous assay (ALPHA) platform. Binding of each protein pair results in proximity of the donor and acceptor beads which leads to an increase in ALPHA signal. Assays are performed in 50 mM Tris (pH 7.4), 0.0015% Triton X-100, 0.1% BSA. Final protein concentration in the assays were 5 nM (His tagged PD-L1), 5 nM (biotinylated PD-1), 10 μg/ml ALPHA assay acceptor beads, 10 μg/ml ALPHA assay donor beads. After an assay reaction time of 2 hours at 25° C., binding was measured. The specificity of the binding was determined by testing the compounds in an assay with an irrelevant protein that is both His tagged and biotinylated. The final protein concentration used in the assay was 5 nM, 10 μg/ml ALPHA assay acceptor beads, 10 μg/ml ALPHA assay donor beads. After an assay reaction time of 2 hours at 25° C., binding was measured. IC50 values were calculated from the fit of the dose-response curves to a four-parameter equation.

[2] = across the 27 clinical trials analyzed (Tie Y et al., 2016); cited from earlier work

PD-1/PD-L1, sequence (Q9NZQ7 19-238 limits assumed): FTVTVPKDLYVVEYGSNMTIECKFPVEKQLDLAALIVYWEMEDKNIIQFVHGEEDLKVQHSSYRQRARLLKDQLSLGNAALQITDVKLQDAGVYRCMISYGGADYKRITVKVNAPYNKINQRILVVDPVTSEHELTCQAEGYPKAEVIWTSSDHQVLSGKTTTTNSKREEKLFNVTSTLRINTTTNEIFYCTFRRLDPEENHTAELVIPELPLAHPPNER

IC50 [1] | Compound | objective response rate (ORR) [2]
200 nM | N#Cc1cccc(COc2cc(OCc3cccn(-c4ccc5c(c4)OCCO5)c3=O)c(Cl)cc2CN[C@H](CO)C(=O)O)c1 [Compound 202, (5-chloro-2-((3-cyanobenzyl)oxy)-4-((1-(2,3-dihydrobenzo[b][1,4]dioxin-6-yl)-2-oxo-1,2-dihydropyridin-3-yl)methoxy)benzyl)-D-serine] | –
– | Opdivo: Opdivo® (Nivolumab), given as example of PD-L1/PD-1 antagonist therapy validated in clinical trials | 26%
